Source: US8962842B2, “2-pyridone antimicrobial compositions” (priority 2010, dated 2015)
Like-named read-outs stand apart in the source and are kept apart here.

System: Group C Streptococcus (4 strains)
Experiment: MIC range, broader panel of Quotient Bioresearch strains (Table 3)

SMILES: Cc1c(-c2ccc3[nH]ncc3c2)ccn2c(=O)c(C(=O)[O-])cc(C3CC3)c12.[K+] [Example 23 K salt, potassium 1-cyclopropyl-8-(1H-indazol-5-yl)-9-methyl-4-oxo-4H-quinolizine-3-carboxylate]
- MIC (read-out: MIC Range High, Group C Streptococcus (4 strains)): 0.03 µg/mL
- MIC (read-out: MIC Range Low, Group C Streptococcus (4 strains)): ≤ 0.015 µg/mL
- MIC50 (read-out: MIC Range Median, Group C Streptococcus (4 strains)): ≤ 0.015 µg/mL
